For series [1], the system named is Aβ40 toxicity to Neuro2a cells. The series can be described thus: Attenuation of Aβ40 cytotoxicity, MTT assay. To be noted: Aβ40 30 μM premixed with 30 μM peptide for 24 h at room temperature; Aβ40 alone 30%; MTT 48 h later, N = 12. It is filed as cell-based, mouse. Here is the method:
(§1) Data information: Peptide concentration is 30 μM for each peptide. Standard deviations of the mean are shown as bars for each sample (N = 6 for pure peptide and N = 12 for mixture). The statistics were done by Student's t‐test. Mouse N2a neuroblastoma cells (ATCC) were cultured in Dulbecco's modified Eagle's medium (DMEM) (HyClone, USA) supplemented with 10% fetal bovine serum (HyClone, USA). Cells were harvested with DMEM and suspended at a density of 3.5 × 10^5 cells/ml. 100 μl from each sample was plated in one well of a 96‐well CellBIND microplate (Corning, USA) and then incubated at 37°C under 5% CO2 for 24 h. Five microliters from each stock peptide (6 mM) in DMSO was diluted with 95 μl of PBS (pH 7.0) and then 900 μl of DMEM to a final concentration of 30 μM.

A short description of series [2]: CD spectra and TEM of the single peptides (conformation, self-aggregation). It counts as physicochemical. To be noted: 30 μM peptide in 20 mM sodium phosphate buffer with 150 mM KCl (pH 7), 25°C; for amyloid fibril formation (TEM): incubation for 168 h; for conformation by CD spectra: spectra largely unchanged with incubation time. Here is the method:
The circular dichroism (CD) spectra were recorded at various time points as indicated. […] The CD spectra of both peptides remained largely unchanged with the incubation time.
(§2) The 1.4 mM stock solution of each peptide in 75% trifluoroethanol was diluted to a final concentration of 30 μM in 20 mM sodium phosphate buffer with 150 mM KCl (PBS, pH 7). Each was incubated at 25°C for designated time points and placed in a 1‐mm cell to record the CD spectra between 200 and 250 nm on a J‐715 CD spectrometer (JASCO, Japan). The band width was set to 2 nm, and the step resolution was 0.05 nm. Each sample was scanned twice and the average of these two measurements was smoothed by the Savitzky–Golay method to get the final CD spectrum.
(§3) The samples were deposited on carbon‐coated 300‐mesh copper grids, incubated for 3 min for absorption, and then washed by water. Negative staining was carried out by staining with 2% uranyl acetate for 1.5 min. After air drying, the samples were viewed using a Hitachi H‐7000 electron microscope (Hitachi, Japan).
DR8-Aβ (25-35). The peptides were dissolved in 20 mM sodium phosphate b u ff e r with 150 mM KCl and incubated at 25 °C. Pept ide concentration is 30 µ M. (A-C) The CD spectra were recorded at the indicated incubation time shown in (A).(D -F) […]
formed nucleus ver y fast and β -sheet signal (negative ellipticity at 218 nm) can be seen in the beginning of i ncubation. The CD spectra were not smoothed.
(§4) (1 picture or pasted object on this page, not shown here)

The subject of series [3] is Neuro2a cells. Put plainly: Cell viability by MTT assay, peptide alone. Particulars: 30 μM peptide, MTT 48 h later, N = 6. It counts as cell-based, mouse. How it is done: as §1
A general note: Tetrazolium dyes change colour on reduction, which living cells bring about.

The target of series [4] is T1, Aβ40 (Homo sapiens, UniProt P05067).
T1 construct: made in house; host or cells: chemical solid-phase peptide synthesis (Fmoc-polyamide), no expression host
The series can be described thus: Inhibition of Aβ40 fibrillization (CD spectra, TEM). It is filed as biochemical. Particulars: for Aβ40 fibril formation in the presence of peptide at 1:1 ratio (kinetics of CD spectra): authors' reply in review file. How it is done:
as §2, §3
Appendix Figure S2. Effect of the designed bipartite peptides on inhibition of A β 40 fibrillization. The peptides were dissolved in 20 mM sodium phosphate buffer with 150 mM KCl and incubated at 25 °C. Peptide concentration is 30 µM for each peptide. The CD spect ra of A β 40 (A), the Aβ 40/R 8-Aβ (25-35) mixture (1:1) (B), and the Aβ 40/DR8-Aβ (25-35) mixture (1:1) (C) were recorded at the indicated incubation times shown in (A). The spectrum change is pointed out by an arrow in (A), indicating the formation of cross-β structure in the am yloid fibrils. (D) The time course of am yloido gen es is of Aβ 40 with and without the designed peptide inhibitors .
The CD spectra were not smoothed. (A) is the same as Fi g. S1A.
as §4

Where a SMILES comes first, the peptide text is derived from it. [ ]: non-standard residue; d: D form.

T1 sequence (P05067 672-711): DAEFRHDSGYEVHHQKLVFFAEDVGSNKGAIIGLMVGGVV

In the case of “Ac-RRRRRRRRGSNKGAIIGLM-NH2 [R8‐Aβ(25–35)]”, the “cell viability with Aβ40 plus equal molar peptide” value in series [1] was 70–75%. Moreover, in series [2], the “amyloid fibril formation (TEM)” value is listed as “did not form amyloid fibrils at all” and the “conformation by CD spectra” value is “random coil structure”. Also, the “toxicity to the N2a cells” value in series [3] is “no detectable toxicity”. Further, in series [4], the “Aβ40 fibril formation in the presence of peptide at 1:1 ratio (kinetics of CD spectra)” value is recorded as “failed to formed fibrils”. The “inhibition effect on Aβ40 fibrillization at the lowest ratio” value in series [4] (Aβ40 30 μM : peptide 1:0.1) was “observed even when its concentration was ten times lower than Aβ40”. The “effect on formation of Aβ40 amyloid fibrils (CD 218 nm, TEM)” value in series [4] (Aβ40 30 μM mixed with peptide at 1:0.1, 1:0.2 or 1:1 molar ratio, pH 7, 25°C) is on record as “significantly delayed or decreased the formation of Aβ40 amyloid fibrils”.

Turning to `CC[C@H](C)[C@H](NC(=O)[C@H](C)NC(=O)CNC(=O)[C@H](CCCCN)NC(=O)[C@H](CC(N)=O)NC(=O)[C@H](CO)NC(=O)CNC(=O)[C@@H](CCCNC(=N)N)NC(=O)[C@@H](CCCNC(=N)N)NC(=O)[C@@H](CCCNC(=N)N)NC(=O)[C@@H](CCCNC(=N)N)NC(=O)[C@@H](CCCNC(=N)N)NC(=O)[C@@H](CCCNC(=N)N)NC(=O)[C@@H](CCCNC(=N)N)NC(=O)[C@@H](CCCNC(=N)N)NC(C)=O)C(=O)N[C@H](C(=O)NCC(=O)N[C@@H](CC(C)C)C(=O)N[C@@H](CCSC)C(N)=O)[C@@H](C)CC` [^DR8‐Aβ(25–35)] (Ac-[dR][dR][dR][dR][dR][dR][dR][dR]GSNKGAIIGLM-NH2), the “cell viability with Aβ40 plus equal molar peptide” value in series [1] is listed as 70–75%. For the same compound, in series [2], the “amyloid fibril formation (TEM)” value is “did not form amyloid fibrils at all” and the “conformation by CD spectra” value was “random coil structure”. Further, the “toxicity to the N2a cells” value in series [3] is “no detectable toxicity”. Besides, the “Aβ40 fibril formation in the presence of peptide at 1:1 ratio (kinetics of CD spectra)” value in series [4] was “failed to formed fibrils”. The “inhibition effect on Aβ40 fibrillization, 1:1 mixture” value in series [4] (Aβ40 30 μM and peptide 30 μM (1:1), pH 7, 25°C, CD) is “inhibition effect was also observed”.

Source of the values: PMC5412883, “An intranasally delivered peptide drug ameliorates cognitive decline in Alzheimer transgenic mice” (EMBO Molecular Medicine, 2017).
